Values joined by “and” are separate entries in the source; they are usually repeats but may differ in a detail not shown here. Identical values can stand only once.
Experiments:
p24 Gag protein = experiment: Western blot of p24 Gag protein, pNL4-3-transfected HeLa cells and viral progeny; type: cell-based, HIV-1; conditions: increasing concentration
From the text: In vitro, this process occurs in the presence of nucleic acids and a cofactor (Campbell, 1999; Campbell, 2001). Immature particles fail to consolidate an outer membrane, emphasizing the critical role of Gag proteins in the assembly process (Didierlaurent, 2008). As virions bud from the host membrane, viral protease cleaves p55 Gag into its final mature components: matrix (p17), capsid (p24), nucleocapsid (p7) and p6, each designated by its apparent molecular weight. […] Effects may extend across the Gag polyprotein and its components, further compounding activities.

[1] = system: Petaluma strain of FIV (proviral DNA in PBMC); experiment: Proviral load in peripheral blood mononuclear cells by TM-PCR; type: in vivo, domestic cat; conditions: for Proviral Load in PBMC: cats BR, CF
From the text: (§1) Currently available antiretrovirals require daily dosing, often in combination therapy. Two 12^+-year old specific-pathogen-free domestic female cats infected >5 years with the Petaluma strain of FIV were used in this study. The animals were housed individually in a climatized animal facility in accordance with standards, had ad libitum access to fresh water and food, and were sedated with Tiletamine/Zolazepam intramuscularly prior to any procedure. The cats weighed from 3-5 kg each. Three weeks before initiation of the treatment and at scheduled times, samples were collected for hematological and virological analyses. The cats received 9 intravenous doses of 3 mg/kg FX101 over 4.5 weeks (2× weekly).
Genomic DNA was extracted from the PBMC using the QIAamp DNA Blood Mini kit (QIAGEN). Proviral DNA was quantified from 0.4 ug genomic DNA by TM-PCR under the same conditions used for cDNA amplification except that the reaction mixture volume was 25 ul (n=3). The sensitivity of the assay was 100 copies/ug genomic DNA (Pistello, 2005). Proviral load varied over the course of treatment, but measured much lower than baseline pretreatment measures both 6 and 9 months later (27 and 38 weeks, respectively). This measure reflects viral integration into the host PBMCs, primed for production of viral particles with commencement of transcription. […] This is indicative of viral clearance and immune recovery, including apoptotic elimination of virally-infected cells. Viral reservoirs, such as those of macrophages and monocytes, have prevented eradication of lentiviruses (Nicastri, 2008).
0.1664 g FX101 was dissolved into 30 mL 15% DMSO/PBS and stirred overnight. This solution was sterile-filtered using a 20-mL syringe fitted with a […] Sarstedt filter. Each dose was administered under anesthesia, a 1.5 mL venous injection using a 2.5 mL syringe fitted with a 22G 1¼-in. needle (latex free). Feline BR weighed 3.2 kg at the start of the experiment and CF weighed 2.8 kg. Each received 8.3 mg drug with each dose, so dosages were 2.6 mg/kg for BR and 3.0 mg/kg for CF.

[2] = system: peripheral CD4+ and CD8+ T-lymphocytes; experiment: Circulating CD4+ and CD8+ T-lymphocytes by flow cytometry; type: in vivo, domestic cat
Method: Numbers of peripheral CD4^+ and CD8^+ T-lymphocytes in the blood were determined by labeling with mouse monoclonal antibodies to feline CD4^+ (FE1.7B12) and feline CD8^+ (FE1.10E9), obtained from Peter F. Moore, University of California, Davis, Calif. Bound primary antibodies were detected using FITC-conjugated anti-mouse IgG1 (Space-Serotec, Milan, Italy), and the samples were analyzed on a FACScan flow cytometer (Becton Dickinson, San Jose, Calif.). Both a negative (no drug) and positive (integrase inhibitor cocktail) control are included with data from two HK inhibitor-tested felines.

M2 strain of FIV = experiment: Second FIV cat study, plasma viremia (five treated, three control cats); type: in vivo, domestic cat; conditions: after 6 intravenous doses of 3 mg/kg over four weeks, controls showed active viremia
From the text: Eight specific-pathogen-free domestic female cats infected >2 years with the M2 strain of FIV were used in another study. Cats were housed individually in a climatized animal facility in accordance with standards, had ad libitum access to fresh water and food, and were sedated with Tiletamine/Zolazepam intramuscularly prior to any procedure. The animals were divided into two groups, with five receiving FX101 in 10% DMSO/saline (treated) and three receiving only 10% DMSO/saline (control). Prior to initiation of the treatment and at scheduled times, samples were collected for hematological and virological analyses. The cats received 6 intravenous doses of 3 mg/kg FX101 over four weeks. Cats were matched by birthdates and infection dates with similar viral blood plasma viremia levels at the onset of the study. […] Current antretrovirals are required on a daily basis; the efficacy of six doses of treatment over four weeks supports a distinct mechanism from the nucleotide/non-nucleotide reverse transcriptase, protease and infectivity inhibitors. Efficacy extends across diverse strains of FIV, in agreement with alterations by platinum(IV) compounds to the zinc-binding nucleocapsid domain being therapeutically targeted. It is anticipated that cotherapies targeting multiple mechanisms may eventually provide viral clearance for an infected host.

[3] = Blood brain barrier penetration: CSF platinum by graphite furnace atomic absorption; type: in vivo, cat; conditions: final i.v. treatment, both cats
Method: Cerebrospinal fluid (CSF) from cats BR and CF of Example 6 were collected under sedation following humane animal practices. CSF (0.5-1 ml) samples were collected within 15 minutes of FX101 peripheral intravenous (IV) injection to examine for drug penetration into the CNS. Importantly, this analysis was conducted upon the final IV drug treatment, which would most likely evidence resistances to CNS uptake as experienced by other CNS-penetrable drugs. Instead, CSF concentrations (analyzed by graphite furnace atomic absorption spectrometry for this inorganic complex as illustrated for cat “BG”) were equivalent to blood serum concentrations of 5 micrograms/mL in both cats, supporting a continuing unimpeded penetration into the vital CNS compartment through the blood brain barrier.

[4] = Clinical observations, clinical chemistry, CBC and urinalysis in FIV cat studies; type: in vivo; conditions: 9 intravenous doses of 3 mg/kg over 4.5 weeks; two FIV-infected cats
From the text: as §1

[5] = Oct. 4, 2007 (+2 wk) post treatment

SMILES: [NH2][Pt]([NH2])([Cl])([Cl])([Cl])[N+](=O)[O-] [FX101, nitrotrichlorodiamminoPt(IV)]
- mature p24 content in host cells and viral progeny (Western blot) (p24 Gag protein): absence of mature p24
- PBMC proviral load immediately following final dosing (in words) ([1]; 14 days after the final dosing, both animals): short increase
- Proviral Load in PBMC ([1]; Aug. 23, 2007 start of treatment period, blood collected prior to dosing): 4472 proviral DNA copies/ug genomic DNA and 6867 proviral DNA copies/ug genomic DNA
- Proviral Load in PBMC ([1]; Aug. 30, 2007 treatment period): 5803 proviral DNA copies/ug genomic DNA and 6476 proviral DNA copies/ug genomic DNA
- Proviral Load in PBMC ([1]; Jun. 12, 2008 (+38 wk) post treatment): 1747 proviral DNA copies/ug genomic DNA and 1350 proviral DNA copies/ug genomic DNA
- Proviral Load in PBMC ([1]; Mar. 27, 2008 (+27 wk) post treatment): 1250 proviral DNA copies/ug genomic DNA and 1000 proviral DNA copies/ug genomic DNA
- Proviral Load in PBMC [1, 5]: 14500 proviral DNA copies/ug genomic DNA and 14724 proviral DNA copies/ug genomic DNA
- Proviral Load in PBMC ([1]; Oct. 20, 2007 (+4 wk) post treatment): 4211 proviral DNA copies/ug genomic DNA and 2790 proviral DNA copies/ug genomic DNA
- Proviral Load in PBMC ([1]; Sep. 20, 2007 treatment period): 4152 proviral DNA copies/ug genomic DNA and 4660 proviral DNA copies/ug genomic DNA
- proviral loads over subsequent months (in words) ([1]; months after treatment, vs pretreatment baseline): declined over subsequent months, even below pretreatment baseline measures
- Relative CD4+/CD8+ T-Lymphocyte Counts ([2]; Aug. 2, 2007 pretreatment period): 1.1 and 1.3
- Relative CD4+/CD8+ T-Lymphocyte Counts ([2]; Aug. 23, 2007 start of treatment period): 1.2
- Relative CD4+/CD8+ T-Lymphocyte Counts ([2]; Aug. 30, 2007 treatment period): 1.5 and 1.3
- Relative CD4+/CD8+ T-Lymphocyte Counts ([2]; Dec. 1, 2005 pretreatment period): 1.5 and 2.0
- Relative CD4+/CD8+ T-Lymphocyte Counts ([2]; Feb. 1, 2006 pretreatment period): 0.82 and 1.1
- Relative CD4+/CD8+ T-Lymphocyte Counts ([2]; Jan. 1, 2006 pretreatment period): 1.6 and 0.92
- Relative CD4+/CD8+ T-Lymphocyte Counts ([2]; Mar. 1, 2006 pretreatment period): 0.84 and 1.2
- Relative CD4+/CD8+ T-Lymphocyte Counts ([2]; May 8, 2008 (+33 wk) post treatment): 1.8 and 1.6
- Relative CD4+/CD8+ T-Lymphocyte Counts ([2]; Nov. 1, 2005 pretreatment period): 0.86 and 0.85
- Relative CD4+/CD8+ T-Lymphocyte Counts [2, 5]: 1.9 and 1.4
- Relative CD4+/CD8+ T-Lymphocyte Counts ([2]; Sep. 4, 2007 treatment period): 1.5 and 1.6
- final CD4+/CD8+ ratios compared with controls ([2]; conclusion of the study, both tested felines): remained higher
- plasma viremia levels (M2 strain of FIV): below the detection limit of the assay
- blood serum concentrations [3]: 5 micrograms/mL
- CSF concentrations ([3]; within 15 minutes of peripheral i.v. injection): 5 micrograms/mL
- local reactions or adverse clinical indicators [4]: No local reactions or adverse clinical indicators

Source: US8895610B1, “Platinum (IV) compounds targeting zinc finger domains” (priority 2007, dated 2014)
